Assay results: the NIST ThermoML archive (doi:10.1021/acs.jced.6b00526)
Numbers after ± are expanded uncertainties.

Key:
[1] = 100 kPa; for viscosity: Falling or rolling sphere viscometry; for mass density: Vibrating tube method
[2] = refractive index (Na D-line) (dimensionless); conditions: 100 kPa, Standard Abbe refractometry
[3] = xn = mol fraction of the nth substance listed; conditions: 100 kPa, Liquid, x1 = 1; for mass density: Vibrating tube method; for viscosity: Falling or rolling sphere viscometry
[4] = refractive index (Na D-line) (dimensionless); xn = mol fraction of the nth substance listed; conditions: 100 kPa, Liquid, Standard Abbe refractometry, x1 = 1

| SMILES | viscosity ([1]; 293.15 K, Liquid) | mass density ([1]; 293.15 K, Liquid) | viscosity ([1]; 298.15 K, Liquid) | viscosity ([1]; 303.15 K, Liquid) | refractive index ([2]; 288.15 K, Liquid) | refractive index ([2]; 293.15 K, Liquid) | refractive index ([2]; 298.15 K, Liquid) | refractive index ([2]; 303.15 K, Liquid) | refractive index ([2]; 308.15 K, Liquid) | refractive index ([2]; 313.15 K, Liquid) | refractive index ([2]; 318.15 K, Liquid) | mass density ([3]; 288.15 K) | viscosity ([3]; 293.15 K) | mass density ([3]; 293.15 K) | viscosity ([3]; 298.15 K) | viscosity ([3]; 303.15 K) | mass density ([3]; 318.15 K) | refractive index ([4]; 288.15 K) | refractive index ([4]; 293.15 K) | refractive index ([4]; 298.15 K) | other results |
| --- | --- | --- | --- | --- | --- | --- | --- | --- | --- | --- | --- | --- | --- | --- | --- | --- | --- | --- | --- | --- | --- |
| OCCO [1,2-ethanediol] | 21.13 ± 3.4 mPa·s | 1113.3 ± 4.5 kg/m3 | 17.24 ± 2.8 mPa·s | 14.23 ± 2.3 mPa·s | 1.432 ± 0.029 | 1.4306 ± 0.029 | 1.4294 ± 0.029 | 1.4282 ± 0.029 | 1.4269 ± 0.029 | 1.4257 ± 0.029 | 1.4244 ± 0.029 | – | – | – | – | – | – | – | – | – | mass density ([1]; 303.15 K, Liquid): 1106.8 ± 4.4 kg/m3; mass density ([1]; 313.15 K, Liquid): 1099.1 ± 4.4 kg/m3 |
| OCCCCO [1,4-butanediol] | – | – | – | – | – | – | – | – | – | – | – | – | – | – | – | – | – | – | – | – | mass density ([1]; 288.15 K, Metastable liquid): 1018.6 ± 4.1 kg/m3; viscosity ([1]; 293.15 K, Metastable liquid): 90.7 ± 15 mPa·s; mass density ([1]; 293.15 K, Metastable liquid): 1016.3 ± 4.1 kg/m3; viscosity ([1]; 298.15 K, Metastable liquid): 69.89 ± 11 mPa·s; mass density ([1]; 298.15 K, Metastable liquid): 1012.9 ± 4.1 kg/m3; viscosity ([1]; 303.15 K, Metastable liquid): 55.24 ± 8.8 mPa·s; mass density ([1]; 303.15 K, Metastable liquid): 1009.9 ± 4 kg/m3; mass density ([1]; 308.15 K, Metastable liquid): 1006.9 ± 4 kg/m3; mass density ([1]; 313.15 K, Metastable liquid): 1003.2 ± 4 kg/m3; mass density ([1]; 318.15 K, Metastable liquid): 1000.8 ± 4 kg/m3; refractive index ([2]; 288.15 K, Metastable liquid): 1.447 ± 0.029; refractive index ([2]; 293.15 K, Metastable liquid): 1.4455 ± 0.029; refractive index ([2]; 298.15 K, Metastable liquid): 1.4441 ± 0.029; refractive index ([2]; 303.15 K, Metastable liquid): 1.4426 ± 0.029; refractive index ([2]; 308.15 K, Metastable liquid): 1.4412 ± 0.029; refractive index ([2]; 313.15 K, Metastable liquid): 1.4398 ± 0.029; refractive index ([2]; 318.15 K, Metastable liquid): 1.4384 ± 0.029 |
| OCCCCCO [1,5-pentanediol] | 118.7 ± 19 mPa·s | 989.2 ± 4 kg/m3 | 86.79 ± 14 mPa·s | 68.3 ± 11 mPa·s | 1.4503 ± 0.029 | 1.449 ± 0.029 | 1.4478 ± 0.029 | 1.4466 ± 0.029 | 1.4454 ± 0.029 | 1.4441 ± 0.029 | 1.443 ± 0.029 | – | – | – | – | – | – | – | – | – | mass density ([1]; 288.15 K, Liquid): 992.2 ± 4 kg/m3; mass density ([1]; 298.15 K, Liquid): 986.2 ± 4 kg/m3; mass density ([1]; 303.15 K, Liquid): 983.2 ± 4 kg/m3; mass density ([1]; 308.15 K, Liquid): 980.3 ± 4 kg/m3; mass density ([1]; 313.15 K, Liquid): 977.4 ± 4 kg/m3; mass density ([1]; 318.15 K, Liquid): 974.8 ± 4 kg/m3 |
| OCCCO [propan-1,3-diol] | 51.55 ± 8.3 mPa·s | 1053.2 ± 4.3 kg/m3 | 40.8 ± 6.5 mPa·s | 32.74 ± 5.3 mPa·s | 1.4407 ± 0.029 | 1.4393 ± 0.029 | 1.438 ± 0.029 | 1.4367 ± 0.029 | 1.4353 ± 0.029 | 1.434 ± 0.029 | 1.4327 ± 0.029 | – | – | – | – | – | – | – | – | – | mass density ([1]; 288.15 K, Liquid): 1056.2 ± 4.3 kg/m3; mass density ([1]; 298.15 K, Liquid): 1049.9 ± 4.3 kg/m3; mass density ([1]; 303.15 K, Liquid): 1046.7 ± 4.3 kg/m3; mass density ([1]; 308.15 K, Liquid): 1043.5 ± 4.3 kg/m3; mass density ([1]; 313.15 K, Liquid): 1040.4 ± 4.2 kg/m3; mass density ([1]; 318.15 K, Liquid): 1037.9 ± 4.2 kg/m3 |
| O [water] | 0.949 ± 0.15 mPa·s | 998.3 ± 4 kg/m3 | 0.843 ± 0.14 mPa·s | 0.755 ± 0.12 mPa·s | 1.3338 ± 0.027 | 1.3331 ± 0.027 | 1.3325 ± 0.027 | 1.3318 ± 0.027 | 1.3312 ± 0.027 | 1.3305 ± 0.027 | 1.3299 ± 0.027 | – | – | – | – | – | – | – | – | – | mass density ([1]; 288.15 K, Liquid): 999.2 ± 4 kg/m3; mass density ([1]; 318.15 K, Liquid): 990.8 ± 4 kg/m3 |
| O [water] + OCCCCCO | – | – | – | – | – | – | – | – | – | – | – | 999.2 ± 4 kg/m3 | 0.949 ± 0.15 mPa·s | 998.3 ± 4 kg/m3 | 0.843 ± 0.14 mPa·s | 0.755 ± 0.12 mPa·s | 990.8 ± 4 kg/m3 | 1.3338 ± 0.027 | 1.3331 ± 0.027 | 1.3325 ± 0.027 | refractive index ([4]; 303.15 K): 1.3318 ± 0.027; refractive index ([4]; 308.15 K): 1.3312 ± 0.027; refractive index ([4]; 313.15 K): 1.3305 ± 0.027; refractive index ([4]; 318.15 K): 1.3299 ± 0.027 |
| O [water] + OCCCCO | – | – | – | – | – | – | – | – | – | – | – | 999.2 ± 4 kg/m3 | 0.949 ± 0.15 mPa·s | 998.3 ± 4 kg/m3 | 0.843 ± 0.14 mPa·s | 0.755 ± 0.12 mPa·s | 990.8 ± 4 kg/m3 | 1.3338 ± 0.027 | 1.3331 ± 0.027 | 1.3325 ± 0.027 | refractive index ([4]; 303.15 K): 1.3318 ± 0.027; refractive index ([4]; 308.15 K): 1.3312 ± 0.027; refractive index ([4]; 313.15 K): 1.3305 ± 0.027; refractive index ([4]; 318.15 K): 1.3299 ± 0.027 |
| O [water] + OCCCO | – | – | – | – | – | – | – | – | – | – | – | 999.2 ± 4 kg/m3 | 0.949 ± 0.15 mPa·s | 998.3 ± 4 kg/m3 | 0.843 ± 0.14 mPa·s | 0.755 ± 0.12 mPa·s | 990.8 ± 4 kg/m3 | 1.3338 ± 0.027 | 1.3331 ± 0.027 | 1.3325 ± 0.027 | refractive index ([4]; 303.15 K): 1.3318 ± 0.027; refractive index ([4]; 308.15 K): 1.3312 ± 0.027; refractive index ([4]; 313.15 K): 1.3305 ± 0.027; refractive index ([4]; 318.15 K): 1.3299 ± 0.027 |
| O [water] + OCCO | – | – | – | – | – | – | – | – | – | – | – | 999.2 ± 4 kg/m3 | 0.949 ± 0.15 mPa·s | 998.3 ± 4 kg/m3 | 0.843 ± 0.14 mPa·s | 0.755 ± 0.12 mPa·s | 990.8 ± 4 kg/m3 | 1.3338 ± 0.027 | 1.3331 ± 0.027 | 1.3325 ± 0.027 | refractive index ([4]; 303.15 K): 1.3318 ± 0.027; refractive index ([4]; 308.15 K): 1.3312 ± 0.027; refractive index ([4]; 313.15 K): 1.3305 ± 0.027; refractive index ([4]; 318.15 K): 1.3299 ± 0.027 |
